Assay results taken from PMC4467816 (EJNMMI Research, 2015).

Assays:
[1] = molecular target: T1, human NET membranes (Homo sapiens, UniProt P23975); experiment: NET-expressing membrane competitive binding ([3H]nisoxetine); conditions: n ≥ 9 triplicates; cold reference compounds; read-out: Kd (affinity, human NET membranes)
T1 construct: purchased Perkin Elmer RBHNETM400AU
Protocol: The affinity of new radiolabelled ligand was determined in a NET-expressing membrane binding protocol [26, 27].
Data from the competition plots (as arithmetic means of values derived from three different assays, each in triplicate for each compound) were analyzed and subsequently IC50 and Ki values were calculated using GraphPad Prism® software (San Diego, USA).
The affinity of new radiolabeled ligand was determined in a NET-expressing membrane binding protocol [3-5]. […] After incubation time, binding was quenched with ice cold buffer, and membrane bound radioactivity was recovered by rapid vacuum filtration through GF/C glass fiber filters (Whatman® Inc., Clifton, USA) presoaked in assay buffer containing 0.3% polyethylene imine (PEI). […] After addition of a β-scintillation cocktail (2 mL Ultima Gold^TM, biodegradeable, Perkin Elmer), the tubes were shaken for 20 min and then counted. Data from the competition plots (as arithmetic means of values derived from three different assays, each in triplicate for each compound) were analyzed and subsequently IC50 and Ki values were calculated using GraphPad Prism® software (San Diego, USA).

[2] = molecular target: T2, human DAT membranes (Homo sapiens, UniProt Q01959); experiment: DAT-expressing membrane binding (selectivity); conditions: n ≥ 5 triplicates, read-out: affinity for DAT
T2 construct: purchased Perkin Elmer RBHDATM400UA
T2 sequence (Q01959 whole entry): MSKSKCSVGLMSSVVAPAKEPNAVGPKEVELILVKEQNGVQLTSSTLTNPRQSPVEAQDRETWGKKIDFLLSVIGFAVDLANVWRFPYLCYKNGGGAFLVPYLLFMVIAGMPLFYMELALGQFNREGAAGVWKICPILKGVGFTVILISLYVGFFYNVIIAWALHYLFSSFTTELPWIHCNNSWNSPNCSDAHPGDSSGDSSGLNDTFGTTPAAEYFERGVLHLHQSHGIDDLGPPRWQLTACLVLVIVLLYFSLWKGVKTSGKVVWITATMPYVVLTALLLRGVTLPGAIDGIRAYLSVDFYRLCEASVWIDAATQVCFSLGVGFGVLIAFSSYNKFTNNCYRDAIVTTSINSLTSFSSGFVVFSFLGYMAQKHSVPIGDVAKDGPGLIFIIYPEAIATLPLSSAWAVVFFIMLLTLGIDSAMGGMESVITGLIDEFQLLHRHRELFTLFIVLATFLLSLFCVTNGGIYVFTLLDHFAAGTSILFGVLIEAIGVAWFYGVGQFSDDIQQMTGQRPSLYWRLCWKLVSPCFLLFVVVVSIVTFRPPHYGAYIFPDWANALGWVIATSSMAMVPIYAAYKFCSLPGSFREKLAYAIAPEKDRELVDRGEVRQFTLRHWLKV
Protocol: (§1) IC50 and Ki values were obtained in analogy to NET experiments. Ratios DAT/NET and SERT/NET were determined.
as §1

[3] = molecular target: T3, human SERT membranes (Homo sapiens, UniProt P31645); experiment: SERT-expressing membrane binding (selectivity); conditions: n ≥ 5 triplicates, read-out: affinity towards SERT
T3 construct: purchased Perkin Elmer RBHSTM400UA
T3 sequence (P31645 whole entry): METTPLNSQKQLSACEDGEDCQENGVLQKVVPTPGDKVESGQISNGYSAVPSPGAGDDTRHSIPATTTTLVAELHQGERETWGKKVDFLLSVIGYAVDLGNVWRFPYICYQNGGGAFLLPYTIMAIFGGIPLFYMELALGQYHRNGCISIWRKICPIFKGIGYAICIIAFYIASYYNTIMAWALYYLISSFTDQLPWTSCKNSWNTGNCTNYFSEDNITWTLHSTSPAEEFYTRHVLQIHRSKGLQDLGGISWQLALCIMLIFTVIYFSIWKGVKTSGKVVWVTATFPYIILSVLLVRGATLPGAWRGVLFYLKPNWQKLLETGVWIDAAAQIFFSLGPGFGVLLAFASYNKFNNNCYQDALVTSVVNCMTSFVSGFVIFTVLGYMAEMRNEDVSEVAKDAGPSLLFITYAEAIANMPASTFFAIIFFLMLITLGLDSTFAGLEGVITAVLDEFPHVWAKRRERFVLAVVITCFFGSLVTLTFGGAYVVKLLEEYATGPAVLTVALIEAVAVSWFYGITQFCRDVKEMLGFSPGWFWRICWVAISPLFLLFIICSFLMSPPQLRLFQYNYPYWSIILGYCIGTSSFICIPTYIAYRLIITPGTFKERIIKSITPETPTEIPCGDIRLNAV
Protocol: as §1, §1

[4] = HPLC-based logD analysis (ODP-50 column); format: physicochemical; conditions: for chromatographic logD: HPLC on polymeric ODP-50 column, methanol/phosphate buffer, pH 7.4, HPLC method
Protocol: LogD values were assessed using a HPLC-based protocol according to Donovan and Pescatore. All compounds (as cold reference standards) were injected together with two known compounds—with known logD and k′ values—according to a standard protocol. A polymeric ODP-50 column was used; a linear gradient from 10 % MeOH 90 % 25 mM phosphate buffer (pH 7.4) to 100 % methanol within 9.4 min at a flow-rate of 1.5 mL/min was applied. Internal standards were triphenylene and toluene; detection was performed at 260 and 285 nm.

[5] = Plasma free fraction by ultrafiltration; format: in vitro ADME, human; conditions: binding to filter matrix of Centrifree vials, phosphate buffer pH 7.4
Protocol: For the determination of free fraction in human pooled plasma, an ultrafiltration protocol according to previously published methods was used. […] For a detailed method, see Additional file 1.
After incubation for 20 min at room temperature, the Centrifree vials were centrifuged for 50 minutes at 1800g. Subsequently, an aliquot of 50 µL of the ultrafiltrate was taken and measured in the γ-counter. The plasma free fraction was subsequently calculated as the ratio of the ultrafiltrate activity to the total plasma activity. […] The final free fraction value was corrected for this unspecific filter binding.

[6] = molecular target: T4, NET (Rattus norvegicus, UniProt Q63380); experiment: In vitro autoradiography with [11C]Me@HAPTHI, rat heart slices, competition; format: binding; conditions: for % BL-competitor: [11C]Me@HAPTHI binding, BL = baseline; for fmol (calculated relative concentration of transporter protein): limit of detection 0.01 fmol
T4 construct: Wild-type male rats were deeply anesthesized by isoflurane and sacrificed by decapitation; The organs of interest (i.e. brain, heart and testis) were removed; from tissue; host or cells: rat heart, 10 µm cryo-slices
T4 sequence (Q63380 1-617): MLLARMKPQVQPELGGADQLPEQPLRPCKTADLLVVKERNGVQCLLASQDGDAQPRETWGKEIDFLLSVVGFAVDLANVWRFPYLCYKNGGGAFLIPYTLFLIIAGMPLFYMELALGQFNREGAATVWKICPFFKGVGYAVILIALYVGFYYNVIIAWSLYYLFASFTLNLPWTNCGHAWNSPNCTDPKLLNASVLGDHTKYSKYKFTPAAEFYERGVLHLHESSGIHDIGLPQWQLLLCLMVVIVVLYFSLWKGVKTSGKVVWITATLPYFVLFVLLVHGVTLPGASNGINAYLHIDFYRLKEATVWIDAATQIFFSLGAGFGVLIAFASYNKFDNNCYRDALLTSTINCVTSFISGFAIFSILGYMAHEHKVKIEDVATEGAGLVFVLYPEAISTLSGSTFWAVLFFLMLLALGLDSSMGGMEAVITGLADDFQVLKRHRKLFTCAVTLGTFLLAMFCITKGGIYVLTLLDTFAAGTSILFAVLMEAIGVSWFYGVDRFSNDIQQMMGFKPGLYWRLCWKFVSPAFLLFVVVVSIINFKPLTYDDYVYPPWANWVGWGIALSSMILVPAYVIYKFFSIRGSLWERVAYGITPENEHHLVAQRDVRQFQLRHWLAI
Protocol: (§2) In vitro autoradiography was performed with slight modifications according to previously published protocols. Non-specific binding was determined by co-incubation with excess Nisoxetine (10 μM). […] After 1 h at room temperature, incubation was stopped and slices were processed on phosphor imaging films.
(§3) All data was exported to Microsoft Excel for statistical analysis, and the percentage of total specific binding was calculated.
(§4) A buffer for pre-incubation (50 mM TRIS HCl in aqua dest., pH 7.4) and a buffer for the experiment (50 mM TRIS HCl, pH 7.4, 300 mM NaCl, 5 mM KCl, 0.1%w/v ascorbic acid in aqua dest.) were prepared the day before the experiment and stored at 4 °C.
(§5) Tissue sections were allowed to thaw to RT upon thorough vanishing of condense water residues (5-10min). Subsequently, the slices were pre-incubated with the respective buffer at RT for 30 min in a Coplin jar. Slices were taken out of the jar and the buffer residues were removed.
(§6) Non-specific binding was determined by co-incubation with excess Nisoxetine (10 µM). […] To the naïve incubation solution (baseline), a vehicle containing acetonitrile was added in the same concentration as used for the dissolution of the competitors (i.e. 0.3% acetonitrile in the final incubation solution).
(§7) After 1 h the incubation was stopped and the slices were washed twice for 5 min in a jar with ice-cold incubation buffer. Finally, the tissue slides were washed with ice-cold water to remove all residual salts and dried under a smooth air stream. Subsequently, the dry tissue slices were placed on Phosphor-Imager films in a lead shielded cassette for an exposure time of 12 h. Following the analysis of the films with a Cyclone Phosphor Imager, regions of interest (ROI) were analyzed using OptiQuant® software. The signal obtained (digital light units/mm2=DLU/mm^2) was proportional to the radioactivity on the film. Using a calibration curve for each experiment, DLUs were converted into kBq/mm^2. Furthermore, for calculation of NET-density, kBq were converted into fmol by taking into account the specific activity of the radiotracer preparations. All data was exported to Microsoft Excel for statistical analysis and the percentage of total specific binding was calculated.

[7] = molecular target: T5, NET (Homo sapiens, UniProt P23975); experiment: In vitro autoradiography with [11C]Me@HAPTHI, human brain slices, competition; format: binding
T5 construct: The human postmortem tissue (7–9 h postmortem time, no history of neurological diseases) was obtained from the Neurobiobank; from tissue; host or cells: post-mortem human brain (cortex, thalamus, hippocampus, cerebellum, hypothalamus, nucleus caudatus), 10 µm cryo-slices
T5 sequence (P23975 whole entry): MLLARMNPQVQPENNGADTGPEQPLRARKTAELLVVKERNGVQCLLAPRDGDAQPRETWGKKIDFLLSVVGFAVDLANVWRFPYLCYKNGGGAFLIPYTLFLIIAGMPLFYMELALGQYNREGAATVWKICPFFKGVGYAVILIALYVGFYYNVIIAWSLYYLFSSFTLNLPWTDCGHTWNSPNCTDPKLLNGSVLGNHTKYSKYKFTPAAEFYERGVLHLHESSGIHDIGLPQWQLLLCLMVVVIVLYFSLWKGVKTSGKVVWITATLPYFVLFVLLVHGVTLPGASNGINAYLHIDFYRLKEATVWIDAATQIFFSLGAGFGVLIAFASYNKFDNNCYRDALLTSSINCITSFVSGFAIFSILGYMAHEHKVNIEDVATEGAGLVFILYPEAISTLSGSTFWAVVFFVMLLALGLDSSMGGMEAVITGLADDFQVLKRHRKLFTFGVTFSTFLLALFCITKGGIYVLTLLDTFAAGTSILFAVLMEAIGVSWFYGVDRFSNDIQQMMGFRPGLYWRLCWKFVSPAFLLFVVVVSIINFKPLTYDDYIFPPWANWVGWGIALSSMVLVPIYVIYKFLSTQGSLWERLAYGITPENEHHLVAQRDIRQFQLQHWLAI
Protocol: Human brain tissue (cortex, thalamus, hippocampus, cerebellum and hypothalamus) was obtained deeply frozen from the Neurobiobank of the Medical University Vienna and was stored at −80 °C. Before cutting, tissue blocks were thawed slowly within 12 h to −20 °C. The organs were cut at −20 °C in a micro-cryotome into 10-μm-thick slices and thaw mounted onto object slides. Slices were again stored at −80 °C until the beginning of the experiment.
as §2, §3
Human brain tissue (cortex, thalamus, hippocampus, cerebellum, and hypothalamus) was obtained deeply frozen from the Neuro-Biobank of the Medical University Vienna. Upon cutting, all tissue was stored at -80 °C. Before cutting, tissue blocks were thawed slowly within 12 h to -20 °C. The organs were cut at -20°C in a micro-cryotome into 10 µm thick slices and thaw mounted onto object slides. Until the beginning of the experiment, slices were stored at -80°C.
as §4, §5, §6, §7

[8] = molecular target: T6, hNET expressing membranes (Homo sapiens, UniProt P23975); experiment: Harvesting experiments with [11C]Me@HAPTHI on hNET expressing membranes; format: binding; conditions: cold competitor 1-1000 nM, n ≥ 3 triplicates
T6 construct: purchased Perkin Elmer RBHNETM400AU
T6 sequence (P23975 whole entry): as above

[9] = molecular target: T5, NET; experiment: In vitro autoradiography with [11C]Me@HAPTHI, human brain slices, competition; format: binding; conditions: human nucleus caudatus
[10] = human cortex, competitor 100 nM
[11] = human hippocampus, competitor 100 nM
[12] = human hippocampus, competitor 1 μM
[13] = human hypothalamus, competitor 100 nM
[14] = human hypothalamus, competitor 1 μM
[15] = human thalamus, competitor 100 nM
[16] = human thalamus, competitor 1 μM

T1 sequence (P23975 whole entry): as above

## NC[C@@H](O)CCN1c2ccccc2N(c2ccccc2)S1(=O)=O [HAPTHI, (S)-1-(4-amino-3-hydroxybutyl)-3-phenyl-1,3-dihydrobenzo[c][1,2, 5]thiadiazole 2,2-dioxide]
[1]
  Kd: 0.0242 ± 0.0109 µM
[2]
  Kd: > 10 µM
[3]
  Kd: 10.3 µM
[4]
  chromatographic logD: 2.3 ± 0.01

## CNC[C@@H](O)CCN1c2ccccc2N(c2ccccc2)S1(=O)=O [Me@HAPTHI, (S)-1-(3-hydroxy-4-(methylamino)butyl)-3-phenyl-1,3-dihydrobenzo[c][1,2, 5]thiadiazole 2,2-dioxide]
[4]
  chromatographic logD: 2.27 ± 0.01

## [11CH3]NC[C@@H](O)CCN1c2ccccc2N(c2ccccc2)S1(=O)=O [[^11C]Me@HAPTHI, (S)-1-(3-hydroxy-4-([^11C]methylamino)butyl)-3-phenyl-1,3-dihydrobenzo[c][1,2, 5]thiadiazole 2,2-dioxide]
[5]
  unspecific filter retention: 51.26 ± 0.78%

## [2H]C([2H])(F)Oc1ccccc1OC(c1ccccc1)C1CNCCO1 (centres unmarked) [FMeNER-D2]
[4]; HPLC method, phosphate buffer pH 7.4
  logD: 2.73
[6]; competitor 100 nM
  % BL-competitor: 99.00 ± 0.07%
  fmol (calculated relative concentration of transporter protein): <0.01 fmol/mm^2
[6]; competitor 1 μM
  % BL-competitor: 88.8 ± 11.2%
  fmol (calculated relative concentration of transporter protein): <0.01 fmol/mm^2
[7]; human cerebellum, competitor 100 nM
  % BL-competitor: 103.9 ± 12.2%
[7]; human cerebellum, competitor 1 μM
  % BL-competitor: 108.2 ± 17.3%
[7]; [10]
  % BL-competitor: 86.3 ± 11.2 %
  fmol (calculated relative concentration of transporter protein): <0.01 fmol/mm^2
[7]; human cortex, competitor 1 μM
  % BL-competitor: 71.9 ± 7.9 %
  fmol (calculated relative concentration of transporter protein): 0.86 fmol/mm^2
[7]; [11]
  % BL-competitor: 97.1 ± 10.3%
  fmol (calculated relative concentration of transporter protein): <0.01 fmol/mm^2
[7]; [12]
  % BL-competitor: 67.3 ± 8.2%
  fmol (calculated relative concentration of transporter protein): <0.01 fmol/mm^2
[7]; [13]
  % BL-competitor: 97.8 ± 14.6%
  fmol (calculated relative concentration of transporter protein): 0.11 fmol/mm^2
[7]; [14]
  % BL-competitor: 77.4 ± 14.5%
  fmol (calculated relative concentration of transporter protein): 0.02 fmol/mm^2
[7]; [15]
  % BL-competitor: 77.6 ± 9.8%
  fmol (calculated relative concentration of transporter protein): 0.47 fmol/mm^2
[7]; [16]
  % BL-competitor: 68.36 ± 2.11%
  fmol (calculated relative concentration of transporter protein): 0.71 fmol/mm^2
[8]
  displacement of [11C]Me@HAPTHI: concentration-dependent displacement
[9]; competitor 100 nM
  % BL-competitor: 102.6 ± 14.5%
[9]; competitor 1 μM
  % BL-competitor: 107.6 ± 17.7%
